Results: article PMC8327158, “PEGylated AdipoRon derivatives improve glucose and lipid metabolism under insulinopenic and high-fat diet conditions” (Journal of Lipid Research, 2021)

System: HFD-fed wild-type mice
Test: Sphingolipid levels in tissues and serum of HFD-fed mice by mass spectrometry
Assay type: in vivo, mouse
Settings: for Cer 14:0 / Cer 16:0 / Cer 18:0 / Cer 18:1 / Cer 20:0 / Cer 22:0 / Cer 24:0 / Cer 24:1 / Cer 26:0 / Cer 26:1 / DeoxySphinganie / Deoxysphingosine / Hexosyl 14:0 / Hexosyl 16:0 / Hexosyl 18:0 / Hexosyl 20:0 / Hexosyl 22:0 / Hexosyl 24:0 / Hexosyl 24:1 / Lactosyl 16:0 / Lactosyl 18:0 / Lactosyl 22:0 / Lactosyl 24:1 / Lactosyl C24:0 / Sphingaine1P / Sphinganine / Sphingosine / Sphingosine1P / dCer 16:0 / dCer 18:0 / dCer 20:0 / dCer 22:0 / dCer 24:0 / dCer 24:1: 5 mg/kg twice a day 5 days, average ± SD
Method: Six-week-old wild-type male mice were fed HFD for 4 weeks or 7 months In total, 5 mg/Kg of PBS, Adiporon, AdipoRonPEG5, AdipoRonPEG6HTL were injected twice a day for 5 days. After 5 days of treatment, systemic test is performed, and serum (Before and after treatment), subcutaneous, epididymal, liver, heart samples were harvested for qPCR and sphingolipid analysis.
Flash-frozen tissue samples (~40 mg) in a borosilicate glass tube were quenched with 2.0 ml of organic extraction solvent (isopropanol: ethyl acetate, 15:85; v:v) and homogenized with a mechanical tissue disruptor. Immediately afterward, 20 μl of organic internal standard solution was added (Ceramide/Sphingoid Internal Standard Mixture II diluted 1:10 in ethanol). The mixture was vortexed for 20 s and sonicated in ultrasonic bath for 40 min at 40°C. The organic extract was allowed to reach room temperature, and 1.5 ml of HPLC water was added and a two-phase liquid-liquid extraction was performed. The upper phase was transferred to a new clean tube, and the lower aqueous phase containing the protein pellet was re-extracted with additional 2.0 ml of organic extraction solvent. The organic phases were combined and dried under nitrogen stream at 40°C. Dried extracts were stored at –80°C until analysis. For analysis of ceramides and sphingoid base species, the dried residues were reconstituted in 200 μl of methanol. Sphingomyelins required a sample dilution of 1:50 in methanol prior to analysis. Serum sphingolipids were extracted using a similar methodology requiring 25 μl of serum.
Liver, subcutaneous adipose tissue, pancreas, pancreatic islets were initially homogenized in 500 μl of cold PBS using an ultrasonic probe disruptor and keeping the sample on ice during sonication. In total, 50 μl of aqueous homogenate was aliquoted for protein determination. In total, 400 μl of the lysate was immediately quenched in 2.0 ml of organic extraction solvent.
In total, 5 μl of reconstituted samples was injected into an LC/MS/MS system for the analysis of ceramides and sphingoid bases, and 1 μl injection was required for the analysis of sphingomyelins. The system consisted of a Shimadzu LCMS-8050 triple-quadrupole mass spectrometer with the dual ion source operating in electrospray positive ionization mode. The mass spectrometer is coupled to a Shimadzu Nexera X2 UHPLC system equipped with three solvent delivery modules LC-30AD, three degassing units DGU-20A5R, an autosampler SIL-30ACMP, and a column oven CTO-20AC operating at 40°C (Shimadzu Scientific Instruments, Columbia, MD). Six sphingoid bases (d18:1 sphingosine, d18:1 sphingosine-1-phosphate, d18:1 deoxysphingosine, d18:0 sphinganine, d18:0 sphinganine-1-phosphate, d18:0 deoxysphinganine) and […] ceramide species and their metabolites (C16:0, C16:0 dihydroceramide, C16:0 glucosylceramide, C16:0 lactosylceramide, C16:0 sphingomyelin, C18:0, C18:0 dihydroceramide, C18:0 glucosylceramide, C18:0 sphingomyelin, C18:1, C20:0, C22:0, C22:0 glucosylceramide, C24:0, C24:0 dihydroceramide, C24:0 lactosylceramide, C24:0 sphingomyelin, C24:1, C24:1 dihydroceramide, C24:1 glucosylceramide, C24:1 sphingomyelin). Quantitative analysis of sphingolipids was achieved using selective reaction monitoring scan mode. Lipid separation was achieved by reverse phase LC on a 2.1 (i.d.) × 150 mm Ascentis Express C8, 2.7 micron (Supelco, Bellefonte, PA) column under gradient elution, using three different mobile phases: eluent A consisting of methanol/water/formic acid, 600/400/0.8, v/v/v with 5 mM ammonium formate, eluent B consisting of methanol/formic acid, 1,000/0.8, v/v with 5 mM ammonium formate, and eluent C consisting of CH3OH/CH2Cl2 350/650. The concentration of each metabolite was determined according to calibration curves using the peak-area ratio of analyte versus corresponding internal standard. Calibration curves were generated using serial dilutions of each target analyte.

## O=C(COc1ccc(C(=O)c2ccccc2)cc1)NC1CCN(Cc2ccc(OCCOCCOCCOCCOCCO)cc2)CC1 [AdipoRonPEG5]
5 mg/kg
  pancreas S1P level: trend of elevating S1P
  pancreas dihydroceramide levels: minimal impact
  scWAT ceramide levels: neither AdipoRon nor AdipoRonPEG5 had a noticeable impact
5 mg/kg, vs saline controls or AdipoRon
  pancreas C24:0 and C24:1 ceramides: significant reduction
IP 5 mg/kg
  hepatic dihydroceramides: drastically reduced
  serum dihydroceramides dC16:0, dC18:0, dC22:0, dC24:0: drastically lowered
  sphingoid bases including S1P in the liver: overall increase
liver
  Cer 14:0: 10700.6 ± 4986.87 pg/mg
  Cer 16:0: 10811.2 ± 3038.11 pg/mg
  Cer 18:0: 41588.7 ± 18827.94 pg/mg
  Cer 18:1: 0 pg/mg
  Cer 20:0: 1285175.8 ± 314117.31 pg/mg
  Cer 22:0: 17214621.7 ± 3730792.66 pg/mg
  Cer 24:0: 13003125.0 ± 3100177.0 pg/mg
  Cer 24:1: 11982004.5 ± 3750645.21 pg/mg
  Cer 26:0: 114936.8 ± 43584.75 pg/mg
  Cer 26:1: 108478.1 ± 38829.61 pg/mg
  DeoxySphinganie: 17056.5 ± 5841.85 pg/mg
  Deoxysphingosine: 674.4 ± 179.33 pg/mg
  Hexosyl 14:0: 9405.4 ± 4098.51 pg/mg
  Hexosyl 16:0: 2563091.7 ± 636477.68 pg/mg
  Hexosyl 18:0: 8702.7 ± 4241.12 pg/mg
  Hexosyl 20:0: 91341.0 ± 29325.4 pg/mg
  Hexosyl 22:0: 18299628.4 ± 6151493.38 pg/mg
  Hexosyl 24:0: 9345685.4 ± 2422218.78 pg/mg
  Hexosyl 24:1: 8806042.3 ± 2575774.26 pg/mg
  Lactosyl 16:0: 857779.3 ± 221964.15 pg/mg
  Lactosyl 18:0: 0.0 ± 0.0 pg/mg
  Lactosyl 22:0: 403630.8 ± 109007.39 pg/mg
  Lactosyl 24:1: 403865.6 ± 85387.31 pg/mg
  Lactosyl C24:0: 284732.8 ± 96368.82 pg/mg
  Sphingaine1P: 124644.1 ± 37940.82 pg/mg
  Sphinganine: 567456.6 ± 215845.28 pg/mg
  Sphingosine: 1814140 ± 638775.97 pg/mg
  Sphingosine1P: 423169.5 ± 201268.1 pg/mg
  dCer 16:0: 7004.1 ± 1704.17 pg/mg
  dCer 18:0: 30523.3 ± 10512.82 pg/mg
  dCer 20:0: 17088.9 ± 5527.47 pg/mg
  dCer 22:0: 85360 ± 20574 pg/mg
  dCer 24:0: 355838.6 ± 67813.11 pg/mg
  dCer 24:1: 64056.2 ± 12063.67 pg/mg
pancreas
  Cer 14:0: 20.8 ± 6.06 pg/mg
  Cer 16:0: 28.6 ± 10.14 pg/mg
  Cer 18:0: 31.4 ± 12.12 pg/mg
  Cer 18:1: 0 pg/mg
  Cer 20:0: 1410.3 ± 372.3 pg/mg
  Cer 22:0: 5266.0 ± 1349.3 pg/mg
  Cer 24:0: 16049.4 ± 4089.83 pg/mg
  Cer 24:1: 7744.9 ± 1489.17 pg/mg
  Cer 26:0: 162.6 ± 42.67 pg/mg
  Cer 26:1: 88.6 ± 17.21 pg/mg
  DeoxySphinganie: 2.4 ± 0.49 pg/mg
  Deoxysphingosine: 0.0 ± 0.0 pg/mg
  Hexosyl 14:0: 4.2 ± 0.35 pg/mg
  Hexosyl 16:0: 2792.5 ± 371.94 pg/mg
  Hexosyl 18:0: 8.8 ± 4.08 pg/mg
  Hexosyl 20:0: 111.6 ± 39.83 pg/mg
  Hexosyl 22:0: 5728.8 ± 1888.49 pg/mg
  Hexosyl 24:0: 3233.9 ± 524.83 pg/mg
  Hexosyl 24:1: 1360.1 ± 170.0 pg/mg
  Lactosyl 16:0: 1043.4 ± 60.99 pg/mg
  Lactosyl 18:0: 61.7 ± 15.72 pg/mg
  Lactosyl 22:0: 258.7 ± 89.43 pg/mg
  Lactosyl 24:1: 337.2 ± 90.18 pg/mg
  Lactosyl C24:0: 2121.1 ± 714.63 pg/mg
  Sphingaine1P: 25.6 ± 5.99 pg/mg
  Sphinganine: 34.5 ± 9.74 pg/mg
  Sphingosine: 219.2 ± 31.51 pg/mg
  Sphingosine1P: 113.2 ± 32.02 pg/mg
  dCer 16:0: 5.7 ± 3.12 pg/mg
  dCer 18:0: 0.0 ± 0.0 pg/mg
  dCer 20:0: 1.9 ± 0.7 pg/mg
  dCer 22:0: 54.2 ± 43.08 pg/mg
  dCer 24:0: 302.0 ± 155.43 pg/mg
  dCer 24:1: 47.3 ± 31.67 pg/mg
scWAT
  Cer 14:0: 32099.4 ± 10520.94 pg/mg
  Cer 16:0: 191093.1 ± 51596.09 pg/mg
  Cer 18:0: 82819.6 ± 17887.79 pg/mg
  Cer 18:1: 21443 ± 6799 pg/mg
  Cer 20:0: 147177.5 ± 8589.73 pg/mg
  Cer 22:0: 712843.5 ± 129405.16 pg/mg
  Cer 24:0: 2685762.3 ± 976754.88 pg/mg
  Cer 24:1: 3013765.2 ± 650894.91 pg/mg
  Cer 26:0: 24885.1 ± 6744.06 pg/mg
  Cer 26:1: 30570.9 ± 6986.86 pg/mg
  DeoxySphinganie: 1329.3 ± 1128.06 pg/mg
  Deoxysphingosine: 0.0 ± 0.0 pg/mg
  Hexosyl 14:0: 5193.4 ± 2870.39 pg/mg
